The numbers were not newly measured in publication PMC4810081, “Venetoclax (ABT-199) Might Act as a Perpetrator in Pharmacokinetic Drug–Drug Interactions” (Pharmaceutics, 2016), which cites them from elsewhere.

The target in the data set is T1, BCRP (Homo sapiens, UniProt Q9UNQ0).
T1 construct: expressed in transfected cells; host or cells: MDCKII-BCRP (gift of A. H. Schinkel and P. Borst)
The arrangement: method as in PMID 20222053. The following applies: control compound; read-out: IC50 BCRP inhibition, control compound; cited from earlier work.

T1 sequence (Q9UNQ0 whole entry): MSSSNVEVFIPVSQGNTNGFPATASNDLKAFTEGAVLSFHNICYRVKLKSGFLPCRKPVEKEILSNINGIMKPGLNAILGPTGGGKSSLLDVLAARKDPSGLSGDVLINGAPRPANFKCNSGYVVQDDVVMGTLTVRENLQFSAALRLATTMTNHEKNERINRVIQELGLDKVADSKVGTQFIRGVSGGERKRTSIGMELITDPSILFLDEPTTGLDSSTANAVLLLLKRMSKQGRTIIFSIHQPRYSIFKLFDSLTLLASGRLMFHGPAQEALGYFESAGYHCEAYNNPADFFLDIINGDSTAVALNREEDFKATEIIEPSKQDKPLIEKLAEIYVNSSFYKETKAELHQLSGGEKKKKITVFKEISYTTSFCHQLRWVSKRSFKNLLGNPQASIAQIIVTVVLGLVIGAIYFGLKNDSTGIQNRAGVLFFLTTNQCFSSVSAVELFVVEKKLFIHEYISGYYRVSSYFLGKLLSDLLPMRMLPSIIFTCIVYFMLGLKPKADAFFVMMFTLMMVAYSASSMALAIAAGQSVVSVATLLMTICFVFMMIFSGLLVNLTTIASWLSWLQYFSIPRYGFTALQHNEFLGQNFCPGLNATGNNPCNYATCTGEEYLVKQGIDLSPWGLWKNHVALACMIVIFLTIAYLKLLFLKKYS

In general, IC50 refers to the concentration that gives 50% inhibition. Take `COc1ccc2c3c([nH]c2c1)[C@H](C=C(C)C)N1C(=O)[C@@H]2CCCN2C(=O)[C@@H]1C3` [FTC, fumitremorgin C]: the 50% inhibitory concentration (IC50) was 700 ± 300 nM.
